Assay results: ChEMBL document CHEMBL1130913, “Synthesis and antibacterial in vitro activity of novel analogues of nematophin” (1998)
In brackets after ≈: the same amount, converted by molar mass.

Experiments:
[1] = system: Staphylococcus intermedius; assay: In vitro inhibitory activity in iso sensitest agar against Staphylococcus intermedius strain ATCC 9503 in addition with 5%serum; type: functional
[2] = system: Staphylococcus intermedius; assay: In vitro inhibitory activity in iso sensitest agar against Staphylococcus intermedius strain ATCC 9503; type: functional
[3] = system: Staphylococcus aureus; assay: In vitro inhibitory activity in iso sensitest agar against Staphylococcus aureus strain ATCC 6538; type: functional
[4] = system: Staphylococcus hyicus; assay: In vitro inhibitory activity in iso sensitest agar against Staphylococcus hyicus strain ATCC 9622 in addition with 5%serum; type: functional
[5] = system: Staphylococcus intermedius; assay: In vitro inhibitory activity in iso sensitest agar against Staphylococcus intermedius strain ATCC 29663 in addition with 5%serum; type: functional
[6] = system: Staphylococcus aureus; assay: In vitro inhibitory activity in iso sensitest agar against Staphylococcus aureus strain ATCC 29213 in addition with 5%serum; type: functional
[7] = system: Staphylococcus hyicus; assay: In vitro inhibitory activity in iso sensitest agar against Staphylococcus hyicus strain ATCC 9621; type: functional
[8] = system: Staphylococcus aureus; assay: In vitro inhibitory activity in iso sensitest agar against Staphylococcus aureus strain ATCC 6538 in addition with 5%serum; type: functional
[9] = system: Staphylococcus intermedius; assay: In vitro inhibitory activity in iso sensitest agar against Staphylococcus intermedius strain ATCC 29663; type: functional
[10] = system: Staphylococcus aureus; assay: In vitro inhibitory activity in iso sensitest agar against Staphylococcus aureus strain ATCC 29213; type: functional
[11] = system: Staphylococcus hyicus; assay: In vitro inhibitory activity in iso sensitest agar against Staphylococcus hyicus strain ATCC 9622; type: functional
[12] = system: Staphylococcus hyicus; assay: In vitro inhibitory activity in iso sensitest agar against Staphylococcus hyicus strain ATCC 9621 in addition with 5%serum; type: functional
[13] = system: Staphylococcus aureus; assay: In vitro inhibitory activity in iso sensitest agar against Staphylococcus aureus strain ATCC 25923 in addition with 5%serum; type: functional
[14] = system: Staphylococcus aureus; assay: In vitro inhibitory activity in iso sensitest agar against Staphylococcus aureus strain ATCC 25923; type: functional
[15] = system: Staphylococcus hyicus; assay: In vitro minimum inhibitory concentration in iso sensitest agar against Staphylococcus hyicus strain ATCC 9622; type: functional
[16] = system: Staphylococcus hyicus; assay: In vitrIn vitro inhibitory activity in iso sensitest agar against Staphylococcus hyicus strain ATCC 9621; type: functional
[17] = system: Staphylococcus hyicus; assay: In vitro inhibitory activity in iso sensitest agar against Staphylococcus hyicus strain ATCC 9622 in addition with 0.5%blood; type: functional
[18] = system: Staphylococcus intermedius; assay: In vitro inhibitory activity in iso sensitest agar against Staphylococcus intermedius strain ATCC 9503 in addition with 0.5%blood; type: functional
[19] = system: Staphylococcus hyicus; assay: In vitro inhibitory activity in iso sensitest agar against Staphylococcus hyicus strain ATCC 9622 in addition with 0.5%serum; type: functional
[20] = system: Staphylococcus aureus; assay: In vitro inhibitory activity in iso sensitest agar against Staphylococcus aureus strain ATCC 6538 in addition with 0.5%blood; type: functional
[21] = system: Staphylococcus aureus; assay: In vitro inhibitory activity in iso sensitest agar against Staphylococcus aureus strain ATCC 6538 in addition with 0.5%serum; type: functional
[22] = system: Staphylococcus intermedius; assay: In vitro inhibitory activity in iso sensitest agar against Staphylococcus intermedius strain ATCC 9503 in addition with 5%blood; type: functional
[23] = system: Staphylococcus hyicus; assay: In vitro inhibitory activity in iso sensitest agar against Staphylococcus hyicus strain ATCC 9621 in addition with 0.5%blood; type: functional
[24] = system: Staphylococcus hyicus; assay: In vitro inhibitory activity in iso sensitest agar against Staphylococcus hyicus strain ATCC 9622 in addition with 5%blood; type: functional
[25] = system: Staphylococcus hyicus; assay: In vitro inhibitory activity in iso sensitest agar against Staphylococcus hyicus strain ATCC 9621 in addition with 5%blood; type: functional
[26] = system: Staphylococcus aureus; assay: In vitro inhibitory activity in iso sensitest agar against Staphylococcus aureus strain ATCC 6538 in addition with 5%blood; type: functional
[27] = system: Staphylococcus intermedius; assay: In vitro inhibitory activity in iso sensitest agar against Staphylococcus intermedius strain ATCC 9503 in addition with 0.5%serum; type: functional
[28] = system: Staphylococcus hyicus; assay: In vitro inhibitory activity in iso sensitest agar against Staphylococcus hyicus strain ATCC 9621 in addition with 0.5%serum; type: functional
[29] = system: Staphylococcus aureus; assay: In vitro inhibitory activity in iso sensitest agar against Staphylococcus aureus strain ATCC 6538 in addition with 0.5%serum
[30] = system: Staphylococcus aureus; assay: In vitro inhibitory activity in iso sensitest agar against Staphylococcus aureus strain ATCC 6538 in addition with 5%serum
[31] = system: Staphylococcus aureus; assay: In vitro inhibitory activity in iso sensitest agar against Staphylococcus aureus strain ATCC 6538 in addition with 5%blood

MIC [1] [µg/mL] | MIC [2] [µg/mL] | MIC [3] [µg/mL] | MIC [4] [µg/mL] | MIC [5] [µg/mL] | MIC [6] [µg/mL] | MIC [7] [µg/mL] | MIC [8] [µg/mL] | MIC [9] [µg/mL] | MIC [10] [µg/mL] | MIC [11] [µg/mL] | MIC [12] [µg/mL] | MIC [13] [µg/mL] | MIC [14] [µg/mL] | SMILES | other results
> 64 | 2 (≈ 5.52 µM) | 1 (≈ 2.76 µM) | > 64 | > 64 | > 64 | 1 (≈ 2.76 µM) | > 64 | > 64 | 2 (≈ 5.52 µM) | 2 (≈ 5.52 µM) | > 64 | > 64 | 2 (≈ 5.52 µM) | CC(C)CC(=O)C(=O)NCCc1cn(Cc2ccccc2)c2ccccc12 | –
> 64 | 2 (≈ 5.52 µM) | 0.125 (≈ 0.345 µM) | > 64 | > 64 | 16 (≈ 44.1 µM) | 1 (≈ 2.76 µM) | > 64 | 8 (≈ 22.1 µM) | 0.125 (≈ 0.345 µM) | 1 (≈ 2.76 µM) | > 64 | 16 (≈ 44.1 µM) | 0.125 (≈ 0.345 µM) | CCC(C)C(=O)C(=O)NCCc1cn(Cc2ccccc2)c2ccccc12 (configuration not stated) | –
32 (≈ 112 µM) | 0.5 (≈ 1.75 µM) | 0.03 (≈ 0.105 µM) | > 64 | 16 (≈ 55.9 µM) | 16 (≈ 55.9 µM) | 0.03 (≈ 0.105 µM) | > 64 | 2 (≈ 6.98 µM) | 0.03 (≈ 0.105 µM) | 0.03 (≈ 0.105 µM) | > 64 | 16 (≈ 55.9 µM) | 0.03 (≈ 0.105 µM) | CC(C)CC(=O)C(=O)NCCc1cn(C)c2ccccc12 | –
64 (≈ 204 µM) | 1 (≈ 3.18 µM) | 0.125 (≈ 0.398 µM) | > 64 | 32 (≈ 102 µM) | 32 (≈ 102 µM) | 0.06 (≈ 0.191 µM) | > 64 | 2 (≈ 6.36 µM) | 0.25 (≈ 0.795 µM) | 0.25 (≈ 0.795 µM) | > 64 | 32 (≈ 102 µM) | 0.06 (≈ 0.191 µM) | CC(C)CC(=O)C(=O)NCCc1cn(C(C)C)c2ccccc12 | –
> 64 | 0.125 (≈ 0.359 µM) | 0.03 (≈ 0.0861 µM) | > 64 | > 64 | > 64 | – | > 64 | 1 (≈ 2.87 µM) | 0.06 (≈ 0.172 µM) | – | > 64 | > 64 | 0.06 (≈ 0.172 µM) | CC(C)CC(=O)C(=O)NCCc1cn(-c2ccccc2)c2ccccc12 | MIC [15]: 0.015 µg/mL (≈ 0.043 µM); MIC [16]: 0.06 µg/mL (≈ 0.172 µM)

The remaining lines, values behind:

SMILES | MIC [1] [µg/mL] | MIC [2] [µg/mL] | MIC [3] [µg/mL] | MIC [4] [µg/mL] | MIC [5] [µg/mL] | MIC [6] [µg/mL] | MIC [7] [µg/mL] | MIC [8] [µg/mL] | MIC [9] [µg/mL] | MIC [10] [µg/mL] | MIC [11] [µg/mL] | MIC [12] [µg/mL] | MIC [13] [µg/mL] | MIC [14] [µg/mL] | other results
CCC(C)C(=O)C(=O)NCCc1cn(C(C)C)c2ccccc12 (configuration not stated) | > 32 | 2 (≈ 6.36 µM) | 0.03 (≈ 0.0954 µM) | > 32 | > 32 | 8 (≈ 25.4 µM) | 1 (≈ 3.18 µM) | > 32 | 4 (≈ 12.7 µM) | 0.03 (≈ 0.0954 µM) | 0.5 (≈ 1.59 µM) | > 32 | 16 (≈ 50.9 µM) | 0.03 (≈ 0.0954 µM) | –
CC(C)CC(=O)C(=O)NCCc1c[nH]c2ccccc12 | – | 1 (≈ 3.67 µM) | 0.125 (≈ 0.459 µM) | – | – | – | 0.25 (≈ 0.918 µM) | – | 2 (≈ 7.34 µM) | 0.25 (≈ 0.918 µM) | 0.03 (≈ 0.11 µM) | – | – | 0.25 (≈ 0.918 µM) | –
CCC(C)C(=O)C(=O)NC(C)Cc1c[nH]c2ccccc12 (configuration not stated) | – | 0.5 (≈ 1.75 µM) | 1 (≈ 3.49 µM) | – | – | – | 1 (≈ 3.49 µM) | – | – | – | 0.5 (≈ 1.75 µM) | – | – | – | –
CCC(C)C(=O)C(=O)NCCc1c[nH]c2ccccc12 (configuration not stated) | 16 (≈ 58.7 µM) | 2 (≈ 7.34 µM) | 0.25 (≈ 0.918 µM) | > 64 | 16 (≈ 58.7 µM) | 4 (≈ 14.7 µM) | 1 (≈ 3.67 µM) | > 64 | 8 (≈ 29.4 µM) | 0.125 (≈ 0.459 µM) | 0.5 (≈ 1.84 µM) | > 64 | 4 (≈ 14.7 µM) | 0.125 (≈ 0.459 µM) | MIC [17]: 0.125 µg/mL (≈ 0.459 µM); MIC [18]: 1 µg/mL (≈ 3.67 µM); MIC [19]: 1 µg/mL (≈ 3.67 µM); MIC [20]: > 128 µg/mL; MIC [21]: > 128 µg/mL; MIC [22]: > 128 µg/mL; MIC [23]: 0.25 µg/mL (≈ 0.918 µM); MIC [24]: > 128 µg/mL; MIC [25]: > 128 µg/mL; MIC [26]: > 128 µg/mL; MIC [27]: 8 µg/mL (≈ 29.4 µM); MIC [28]: > 128 µg/mL
CCC(C)C(=O)C(=O)NCCc1cn(C)c2ccccc12 (configuration not stated) | – | 0.5 (≈ 1.75 µM) | 0.015 (≈ 0.0524 µM) | > 32 | 32 (≈ 112 µM) | 16 (≈ 55.9 µM) | 0.06 (≈ 0.21 µM) | > 32 | 2 (≈ 6.98 µM) | 0.015 (≈ 0.0524 µM) | 0.06 (≈ 0.21 µM) | > 32 | 16 (≈ 55.9 µM) | 0.015 (≈ 0.0524 µM) | MIC [17]: 0.03 µg/mL (≈ 0.105 µM); MIC [18]: 0.06 µg/mL (≈ 0.21 µM); MIC [19]: 0.125 µg/mL (≈ 0.436 µM); MIC [20]: 0.06 µg/mL (≈ 0.21 µM); MIC [29]: 2 µg/mL (≈ 6.98 µM); MIC [21]: 0.25 µg/mL (≈ 0.873 µM); MIC [30]: > 32 µg/mL; MIC [23]: 0.03 µg/mL (≈ 0.105 µM); MIC [31]: > 128 µg/mL; MIC [24]: > 128 µg/mL; MIC [25]: > 128 µg/mL; MIC [26]: > 128 µg/mL; MIC [28]: 0.25 µg/mL (≈ 0.873 µM)
